Data reported in ChEMBL document CHEMBL4706505, “F10, a new camptothecin derivative, was identified as a new orally-bioavailable, potent antitumor agent” (Eur J Med Chem, 2020).
Converted amounts (≈) assume the structure as drawn. The source made the active and inactive calls. The rule behind the calls is not given here.

Legend:
HCT-116 [1] = assay: Inhibition of colony formation in human HCT-116 cells incubated for 12 days by crystal violet dye based assay; format: functional, cell-based; conditions: dose 0.001-1 nM, time 12.0 day
[2] = target: T1, DNA topoisomerase 1 (Homo sapiens) (UniProt P11387); assay: Inhibition of human recombinant topoisomerase I using DNA pBR322 as substrate assessed as relaxed DNA at 10 uM incubated for 30 mins by gel electrophoresis analysis relative to control
T1 sequence (whole entry): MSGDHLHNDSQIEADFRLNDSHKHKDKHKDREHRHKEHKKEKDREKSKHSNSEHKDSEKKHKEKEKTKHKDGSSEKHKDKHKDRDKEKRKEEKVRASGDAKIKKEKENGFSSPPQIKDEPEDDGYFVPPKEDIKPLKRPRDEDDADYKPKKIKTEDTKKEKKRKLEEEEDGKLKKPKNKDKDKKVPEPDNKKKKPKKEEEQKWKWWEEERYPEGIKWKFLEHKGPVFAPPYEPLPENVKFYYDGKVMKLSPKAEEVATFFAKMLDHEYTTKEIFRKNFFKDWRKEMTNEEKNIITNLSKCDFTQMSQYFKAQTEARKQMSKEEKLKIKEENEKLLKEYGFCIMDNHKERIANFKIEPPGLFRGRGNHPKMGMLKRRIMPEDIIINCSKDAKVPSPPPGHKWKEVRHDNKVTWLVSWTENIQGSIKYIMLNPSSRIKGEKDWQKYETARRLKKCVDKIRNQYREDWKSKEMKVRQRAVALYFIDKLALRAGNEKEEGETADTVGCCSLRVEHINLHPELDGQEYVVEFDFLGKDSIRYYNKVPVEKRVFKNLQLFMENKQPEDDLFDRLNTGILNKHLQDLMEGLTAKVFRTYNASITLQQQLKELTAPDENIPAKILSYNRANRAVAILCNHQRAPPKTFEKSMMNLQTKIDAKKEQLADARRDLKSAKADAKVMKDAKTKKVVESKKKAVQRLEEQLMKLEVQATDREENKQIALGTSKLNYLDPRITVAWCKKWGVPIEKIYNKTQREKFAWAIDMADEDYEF

[3] = Clearance in nude BALB/c mouse serum at 8.0 mg/kg incubated up to 9 hrs, po administered via gavage by LC-MS/MS analysis; format: ADME, organism-based
[4] = Tmax in nude BALB/c mouse serum at 8.0 mg/kg incubated up to 9 hrs, po administered via gavage by LC-MS/MS analysis; format: ADME, organism-based
[5] = MRT (0 to infinity) in nude BALB/c mouse serum at 8.0 mg/kg incubated up to 9 hrs, po administered via gavage by LC-MS/MS analysis; format: ADME, organism-based
[6] = AUC (0 to infinity) in nude BALB/c mouse serum at 8.0 mg/kg incubated up to 9 hrs, iv administered […] by LC-MS/MS analysis; format: ADME, organism-based; design: route intravenous, dose 8 mg/kg, time <=9; conditions: in vivo
Raji [7] = assay: Antitumor activity against NPG mouse xenografted with human Raji cell assessed as decrease in tumor volume at 2 mg/kg, ip measured after 5 day; format: functional
HCT-116 [8] = assay: Antitumor activity against human HCT-116 cells xenografted in nude BALB/c mouse assessed as tumor growth inhibition at 0.2 mg/kg, ip dosed once the other day for 24 days; format: functional; conditions: HCT-116, ip, 576 h, time 24 day, read-out: TGI
Raji [9] = assay: Cytotoxicity against human Raji assessed as reduction in cell viability measured after 72 hrs by MTT assay; format: functional, cell-based
HCT-116 [10] = assay: Antitumor activity against human HCT-116 cells xenografted in nude BALB/c mouse assessed as tumor growth inhibition at 0.5 mg/kg, po dosed once the other day for 12 times upto 24 days; format: functional; conditions: HCT-116, po, 576 h, time day <=24, read-out: TGI
HCT-116 [11] = assay: Antitumor activity against human HCT-116 cells xenografted in nude BALB/c mouse assessed as tumor growth inhibition at 1 mg/kg, ip dosed once the other day for 24 days; format: functional; conditions: HCT-116, ip, 576 h, time 24 day, read-out: TGI
COLO 205 = assay: Cytotoxicity against human COLO 205 assessed as reduction in cell viability measured after 72 hrs by MTT assay; format: functional, cell-based; conditions: COLO 205, 72 h
[12] = Toxicity in Kunming mouse assessed as mortality at 300 mg/kg ip measured once every 30 mins upto 10 days; format: organism-based; conditions: in vivo, 0.5 h
[13] = Cmax in nude BALB/c mouse serum at 8.0 mg/kg incubated up to 9 hrs, po administered via gavage by LC-MS/MS analysis; format: ADME, organism-based; design: route oral, dose 8 mg/kg, time <=9
[14] = target: T1, DNA topoisomerase 1 (Homo sapiens); assay: Inhibition of human recombinant topoisomerase I using DNA pBR322 as substrate assessed as relaxed DNA at 1 uM incubated for 30 mins by gel electrophoresis analysis relative to control
Raji [15] = assay: Antitumor activity against NPG mouse xenografted with human Raji cell assessed as decrease in tumor volume at 4 mg/kg, ip measured after 5 day; format: functional
[16] = Toxicity in Kunming mouse assessed as mortality at 60 mg/kg, iv measured once every 30 mins upto 10 days; format: organism-based; conditions: in vivo, 0.5 h
[17] = Toxicity in Kunming mouse assessed as mortality at 300 mg/kg, po measured once every 30 mins upto 10 days; format: organism-based; conditions: in vivo, 0.5 h
[18] = Toxicity in NPG mouse xenografted with human Raji cells assessed as body weight loss at 8 mg/kg, ig measured on the 1 day; format: organism-based; conditions: in vivo, po, 24 h
[19] = Toxicity in NPG mouse xenografted with human Raji cells assessed as body weight loss at 8 mg/kg, ig measured after 5 day; format: organism-based; conditions: in vivo, po, 120 h
[20] = Toxicity in NPG mouse xenografted with human Raji cells assessed as body weight loss at 4 mg/kg, ip measured after 5 day; format: organism-based; conditions: in vivo, 120 h
[21] = Half life in nude BALB/c mouse serum at 8.0 mg/kg incubated up to 9 hrs, po administered via gavage by LC-MS/MS analysis; format: ADME, organism-based
Raji [22] = assay: Antitumor activity against NPG mouse xenografted with human Raji cell assessed as decrease in tumor volume at 4 mg/kg, ig measured on the 1 day; format: functional
[23] = Toxicity in NPG mouse xenografted with human Raji cells assessed as body weight loss at 4 mg/kg, ig measured on the 1 day; format: organism-based; conditions: in vivo, po, 24 h
HCT-116 [24] = assay: Antitumor activity against human HCT-116 cells xenografted in nude BALB/c mouse assessed as tumor growth inhibition at 8 mg/kg, po dosed once the other day for 12 times upto 24 days; format: functional; design: scale not given: the % may be the effect or the level left; conditions: time day <=24
[25] = Solubility of compound in water incubated for 24 hrs under shaking condition by HPLC analysis; format: physicochemical
HCT-116 [26] = assay: Induction of apoptosis in human HCT-116 cells assessed as late apoptotic cells level at 1 uM incubated for 24 hrs by Annexin V-FITC/PI staining based flow cytometry (reference value: 0.07%); format: functional
HCT-116 [27] = assay: Antitumor activity against human HCT-116 cells xenografted in nude BALB/c mouse assessed as tumor growth inhibition at 2 mg/kg, po dosed once the other day for 12 times upto 24 days; format: functional; conditions: HCT-116, po, 576 h, time day <=24, read-out: TGI
[28] = AUC (0 to infinity) in nude BALB/c mouse serum at 8.0 mg/kg incubated up to 9 hrs, po administered via gavage by LC-MS/MS analysis; format: ADME, organism-based; design: route oral, dose 8 mg/kg, time <=9; conditions: in vivo
HCT-116 [29] = assay: Induction of apoptosis in human HCT-116 cells assessed as late apoptotic cells level at 0.001 uM incubated for 24 hrs by Annexin V-FITC/PI staining based flow cytometry (reference value: 0.07%); format: functional

CCc1c2c(nc3ccc(OCC(=O)N4CCCCC4)cc13)-c1cc3c(c(=O)n1C2)COC(=O)[C@]3(O)CC
inhibition (HCT-116 [1]): Active
inhibition [2]: 52.3%
CL/F [3]: 0.794 mL/min
Tmax [4]: 0.33 h
MRT inf [5]: 1.15 h
AUC [6]: 748.96 h/ng/mL
Activity (Raji [7]): 936 mm3
inhibition in vivo at 0.2 mg/kg (HCT-116 [8]): 71.8%
IC50 (Raji [9]): 0.002 µM
inhibition in vivo at 0.5 mg/kg (HCT-116 [10]): 48.1%
inhibition in vivo at 1 mg/kg (HCT-116 [11]): 90.2%
IC50 (COLO 205): 0.096 µM
Activity [12]: Non-Toxic
Cmax [13]: 332 ng/mL
inhibition [14]: 38.1%
Activity (Raji [15]): 729 mm3
Activity [16]: Non-Toxic
Activity [17]: Toxic
Activity [18]: 24.6 g
Activity [19]: 22.5 g
Activity [20]: 19.2 g
half-life [21]: 1.46 h
Activity (Raji [22]): 900 mm3
Activity [23]: 25.4 g
Activity (HCT-116 [24]): 96.2%
solubility thermodynamic at 24 h [25]: 6.22 µg/mL (≈ 12 µM)
Activity (HCT-116 [26]): 6.4%
inhibition in vivo at 2 mg/kg (HCT-116 [27]): 79.6%
AUC [28]: 168.07 h/ng/mL
Activity (HCT-116 [29]): 5.48%
